Test results: paper PMC11024192, “Dissolution and antioxidant potential of apigenin self nanoemulsifying drug delivery system (SNEDDS) for oral delivery” (Scientific Reports, 2024)
“And” between values parts separate entries of the source, which are not always exact repeats. Identical values can stand only once.

How the values were obtained:
[1] = In vitro dissolution profile (apparatus type II, HPMC capsules) and release kinetics fitting; assay type: physicochemical; conditions: 37 °C, 100 rpm, 5 mg apigenin in HPMC capsule
Description: The apigenin-loaded SNEDDS formulations GTP2575 and GTP3070 were selected for evaluating the in vitro dissolution because both formulations offered nearly 100% transmittance, an appropriate size with a narrow size distribution, a quick self-emulsification time, and great drug loading and encapsulation efficiency. […] Therefore, formulations GTP2575 and GTP3070 were preferred for in vitro dissolution study.
Dissolution was performed by a dissolution apparatus type II (a paddle) (Vision G2 Elite 8, Hanson, CA, USA). The SNEDDS formulations GTP2575 and GTP3070 containing 5 mg of apigenin were added to HPMC capsules number 00. An equivalent 5 mg of apigenin coarse powder added to HPMC capsules using lactose monohydrate as the filler was the control. Each capsule was placed inside a sinker loaded with 900 mL of dissolution media (buffer solutions pH 1.2, 4.5, and 6.8) at 37.0 ± 0.5 °C with a rotating speed of 100 rpm. During the study, 5 mL of dissolution medium was removed at predetermined time intervals (10, 15, 20, 30, 45, 60, 90, and 120 min), and 5 mL of fresh buffer solution was replaced. The amount of apigenin dissolved in the dissolution media was determined by HPLC. The dissolution experiment was carried out in triplicate. The dissolution profile was plotted with the percent apigenin dissolved on the y-axis and time on the x-axis. The dissolution profiles of GTP2575, GTP3070, and the coarse powder in the dissolution media buffer pH 1.2, 4.5, and 6.8 were compared. The dissolution results of the SNEDDS formulations GTP2575 and GTP3070 in pH 1.2 buffer solution were fitted by determining the R^2 with various kinetic models such as zero-order (a constant release rate independent of the drug remaining), first-order (an exponential decay of the drug remaining), Higuchi (matrix systems where drug release is controlled by diffusion), Hixon–Crowell (release based on the change in the cube root of the drug remaining), and Korsmeyer–Peppas (an extension of the […] model that incorporates a release exponent). […]

[2] = Solubility of apigenin in oils, surfactants and cosurfactants (excess drug, shaking water bath, HPLC); assay type: physicochemical; conditions: 48 h, mean ± SD, n = 3
Text: To formulate the SNEDDS, the selection of suitable oils, surfactants, and cosurfactants is important to enhance the solubility of actives and the loading efficiency. The components used in SNEDDS should maximize drug solubility and have good miscibility with each other to obtain a stable formulation. Therefore, the solubility of apigenin was firstly determined in the oils (Gelucire 44/14, Myritol 318, sunflower oil, and corn oil), surfactants (PEG-40 hydrogenated castor oil, Tween 20, Tween 80, Span 20, and Span 80), and cosurfactants (PEG 400 and Transcutol HP). Briefly, an excess amount of apigenin was weighed into 0.5 g of each excipient. The obtained mixtures were mixed using a vortex mixer and kept in a shaking water bath at 100 rpm and 37 ± 2 °C for 48 h. After equilibrium was achieved, the equilibrated sample was centrifuged at 8000 rpm for 20 min. The excess undissolved apigenin was discarded, and the supernatant was collected. The concentration of apigenin was analyzed by the high-performance liquid chromatography (HPLC). The experiments were performed in triplicate. The excipient in which apigenin was the most soluble was selected to form the pseudoternary phase diagram. The amount of apigenin was quantified by a validated reversed-phase HPLC (RP-HPLC) equipped with a UV/VIS detector (SHIMADZU Series 20AD, Japan). Apigenin was separated on a C18 column (Promosil C18, 4.5 × 250 mm, 5 µm) using methanol, acetonitrile, acetic acid, orthophosphoric acid, and water at a ratio of 40:20:0.05:0.05:40 by volume as the mobile phase at a flow rate of 0.6 mL/min with a detection wavelength of 352 nm. The column temperature was set to 30 °C. The standard curve of apigenin was linear in the concentration range of 0.05–40 µg/mL. Good linearity with a coefficient of determination (R^2) > 0.999 was achieved. The relative standard deviation (%RSD) of intraday and interday precision of the assay method for apigenin was below 6%, and the accuracy was within the range of 95–105%. The limit of quantification and limit of detection were 0.64 and 0.21 µg/mL, respectively.

[3] = set-up: method as in PMID 34084146; conditions: cited from earlier work
Caco-2 cells = experiment: Intracellular (cellular) antioxidant activity (CAA) assay, DCFH-DA/AAPH; assay type: cell-based; conditions: apigenin 7 μg/mL final, ascorbic acid 0.01%w/v, mean ± SD; for AUC (area under the DCF fluorescence response curve over time): 1 h incubation, 600 µM AAPH; for CAA unit (%reduction): vs non-antioxidant treated control
Text: The quantitative cellular antioxidant activity (CAA) assay is a useful method employed for determining the bioavailability of food antioxidants because it can account for several additional factors, such as cellular uptake and metabolism. The CAA assay uses a fluorescent probe (DCFH-DA) to monitor the inhibition of peroxyl radical-induced oxidation inside the cell. The ester form (DCFH-DA) is nonionic and nonpolar and can be transported across the cell membrane. Inside the cell, DCFH-DA is deacetylated by endogenous cellular esterase and left in its oxidizable DCFH form. Once the free radical generator AAPH is added to the system, peroxyl radicals begin to form. The addition of antioxidants that can enter the cell can compete with and quench the radicals, preventing DCFH from being oxidized to form DCF (fluorescent). The CAA unit takes into account the relative areas under the curves of the samples compared to the control. Caco-2 cells, intestinal barrier models, are an appropriate model for assessing the antioxidant activity, especially for the phenolic compound[21] being used in this study.
The quantitative CAA of SNEDDS formulations GTP2575 and GTP3070 was evaluated in Caco-2 cells modified from the study of Kellett et al.[21]. Caco-2 cells were cultured in advanced DMEM supplemented with 10% endotoxin-free, heat-inactivated FBS, 1% L-glutamine, 1% penicillin (10,000 U/mL), and 1% streptomycin (10,000 μg/mL). Each test sample of SNEDDS was prepared by diluting with serum-free culture media to obtain an equivalent concentration of apigenin (14 µg/mL). The working solution (25 μM DCFH-DA in serum-free culture media) was prepared from a 12.5 mM DCFH-DA stock solution in MeOH. A 600 μM AAPH solution was prepared from a 60 mM AAPH stock solution in HBSS before experimental use. After Caco-2 cells reached confluence in a T-25 culture flask, the cells were washed twice with sterile PBS (pH 7.4) and dissociated from the surface using trypsin–EDTA. The cells were seeded in 96-well, black, flat-bottom tissue culture-treated dishes (Corning Costar, ME, USA). A density of 60,000 cells in 100 µL of culture media was added to each well and incubated until they reached confluency (24 h). The growth medium was removed after confluence was achieved, and the cells were then washed with PBS to remove any nonadherent and dead cells.
At the time of the experiment, 50 µL of 25 μM DCFH-DA working solution was added to each well, followed by 50 µL of a test sample. As a result, the final concentration of apigenin of 7 μg/mL in each well was obtained. As a control, 50 µL of DCFH-DA working solution and serum-free culture media (no sample included) were utilized. Once the DCFH-DA and test samples were added, the cells were placed in the incubator for 1 h at 37 °C. After 1 h, the cells were washed with PBS 3 times to ensure that any antioxidant effect observed later in the assay was due only to the compounds internalized by the cells. […] The cells were then immediately placed in a BMG CLARIOstar (BMG LABTECH, NC, USA), where real-time fluorescence was measured initially and every five minutes for 1 h (a total of 13 readings were taken). The fluorescence was measured at an excitation wavelength of 485 nm and an emission wavelength of 538 nm. The antioxidant activity of test samples was quantified by evaluating the percent reduction in fluorescence. […] The percent reduction, or the CAA unit, was calculated using Eq. (3). The samples were evaluated in triplicate and reported as the mean ± SD. […]

Row | Structure (SMILES) | percent apigenin dissolved at 120 min ([1]; buffer pH 1.2, 900 mL) | percent apigenin dissolved at 120 min ([1]; buffer pH 4.5, 900 mL) | percent apigenin dissolved at 120 min ([1]; buffer pH 6.8, 900 mL) | Solubility at 37 °C ([2]; in Gelucire 44/14 (oil)) | Solubility at 37 °C ([2]; in Myritol 318 (oil)) | Solubility at 37 °C ([2]; in PEG 400 (cosurfactant)) | Solubility at 37 °C ([2]; in PEG-40 hydrogenated castor oil (surfactant)) | Solubility at 37 °C ([2]; in Span 20 (surfactant)) | Solubility at 37 °C ([2]; in Span 80 (surfactant)) | Solubility at 37 °C ([2]; in Transcutol HP (cosurfactant)) | Solubility at 37 °C ([2]; in Tween 20 (surfactant)) | Solubility at 37 °C ([2]; in Tween 80 (surfactant)) | Solubility at 37 °C ([2]; in corn oil) | Solubility at 37 °C ([2]; in sunflower oil) | Biopharmaceutical classification system (BCS) class [3] | Solubility in water [3] | AUC (area under the DCF fluorescence response curve over time) (Caco-2 cells; n = 3) | CAA unit (%reduction) (Caco-2 cells; n = 3, listed as Apigenin coarse powder) | CAA unit (%reduction) (Caco-2 cells; n = 3, listed as apigenin coarse powder) | CAA unit (%reduction) (Caco-2 cells; n = 3)
1 | O=c1cc(-c2ccc(O)cc2)oc2cc(O)cc(O)c12 [apigenin] | 5% | 2% | 2% | 7.77 ± 0.63 mg/g and 7.7686 ± 0.6332 mg/g | 0.0003 ± 0.0000 mg/g | 27.6349 ± 0.9833 mg/g | 11.3645 ± 0.2659 mg/g | 0.0013 ± 0.0000 mg/g | 0.0007 ± 0.0001 mg/g | 20.9544 ± 0.8715 mg/g | 20.9996 ± 1.1273 mg/g | 22.5921 ± 0.0290 mg/g | 0.0003 ± 0.0000 mg/g | 0.0004 ± 0.0000 mg/g | Class II | insoluble | 9,951,772 ± 1,061,408 | 12.70 ± 5.14 % | 12.70% and 12.70 ± 5.14% | –
2 | O=C1O[C@H]([C@@H](O)CO)C(O)=C1O [ascorbic acid] | – | – | – | – | – | – | – | – | – | – | – | – | – | – | – | – | 8,959,896 ± 1,441,639 | – | – | 21.61 ± 7.41%
